Measured values published in patent US8003660B2, “Modulators of muscarinic receptors” (Vertex Pharmaceuticals Incorporated, priority 2006, dated 2011).
Where two headings read alike, the source gives them in different places.

Experiments:
Type in all cases: cell-based
M1 muscarinic receptor = target: T1, M1 muscarinic receptor (Homo sapiens, UniProt P11229); experiment: Functional mobilization of intracellular calcium (FLIPR) in CHO cells expressing M1; conditions: for EC50: CHO cells expressing M1, FLIPR calcium; for Emax: CHO; for M1 Activity: CHO cells expressing M1, FLIPR calcium assay
T1 construct: expressed in transfected cells; host or cells: CHO (M1-CHO)
T1 sequence (P11229 1-460): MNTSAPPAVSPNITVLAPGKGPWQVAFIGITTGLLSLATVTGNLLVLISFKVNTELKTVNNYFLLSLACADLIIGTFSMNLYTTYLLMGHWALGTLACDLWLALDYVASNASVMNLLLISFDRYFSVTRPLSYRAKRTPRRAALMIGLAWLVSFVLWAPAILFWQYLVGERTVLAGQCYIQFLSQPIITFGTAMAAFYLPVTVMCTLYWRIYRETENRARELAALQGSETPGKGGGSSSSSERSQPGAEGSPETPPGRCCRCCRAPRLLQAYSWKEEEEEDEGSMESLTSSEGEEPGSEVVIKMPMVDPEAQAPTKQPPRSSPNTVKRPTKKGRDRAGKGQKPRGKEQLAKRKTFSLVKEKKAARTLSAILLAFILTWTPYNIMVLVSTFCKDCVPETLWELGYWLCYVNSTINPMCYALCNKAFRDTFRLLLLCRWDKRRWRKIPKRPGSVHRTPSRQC
Method in brief: (§1)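 Calcium flux is read on FLIPR over 60 sec at 488/540 nm in muscarinic-receptor CHO lines. Antagonist mode adds carbachol at EC80 after 15 min compound preincubation or with simultaneous co-application. Agonist mode adds compound alone. Cells carry Fluo-3 or Calcium 3 dye in probenecid-containing pH 7.4 buffer, 0.5% DMSO final.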

M3 muscarinic receptor = target: T2, M3 muscarinic receptor (Homo sapiens, UniProt P20309); experiment: Functional mobilization of intracellular calcium (FLIPR) in CHO cells expressing M3; conditions: for EC50: CHO cells expressing M3, FLIPR calcium; for Emax: CHO; for M3 Activity: CHO cells expressing M3, FLIPR calcium assay
T2 construct: expressed in transfected cells; host or cells: CHO (M3-CHO)
T2 sequence (P20309 whole entry): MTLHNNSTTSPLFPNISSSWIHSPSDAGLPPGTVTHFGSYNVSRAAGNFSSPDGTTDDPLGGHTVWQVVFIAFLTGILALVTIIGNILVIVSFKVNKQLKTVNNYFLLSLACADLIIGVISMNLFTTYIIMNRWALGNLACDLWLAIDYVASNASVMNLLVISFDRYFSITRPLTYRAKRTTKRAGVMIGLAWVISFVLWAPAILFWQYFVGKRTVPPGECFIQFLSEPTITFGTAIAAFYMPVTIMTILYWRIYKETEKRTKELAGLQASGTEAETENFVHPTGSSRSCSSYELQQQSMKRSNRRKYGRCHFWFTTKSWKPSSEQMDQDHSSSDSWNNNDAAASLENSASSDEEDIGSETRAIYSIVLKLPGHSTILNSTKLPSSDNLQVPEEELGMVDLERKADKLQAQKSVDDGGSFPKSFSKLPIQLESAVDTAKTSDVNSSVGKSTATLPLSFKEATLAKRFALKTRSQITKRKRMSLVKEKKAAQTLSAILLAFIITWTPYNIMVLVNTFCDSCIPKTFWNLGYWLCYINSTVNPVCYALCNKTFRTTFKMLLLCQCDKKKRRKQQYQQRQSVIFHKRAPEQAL
Method in brief: as §1

M4 muscarinic receptor = target: T3, M4 muscarinic receptor (Homo sapiens, UniProt P08173); experiment: Functional mobilization of intracellular calcium (FLIPR) in CHO cells expressing M4; conditions: for EC50: CHO cells expressing M4, FLIPR calcium; for Emax: CHO; for M4 Activity: CHO cells expressing M4, FLIPR calcium assay
T3 construct: expressed in transfected cells; host or cells: CHO (M4-CHO)
T3 sequence (P08173 1-479): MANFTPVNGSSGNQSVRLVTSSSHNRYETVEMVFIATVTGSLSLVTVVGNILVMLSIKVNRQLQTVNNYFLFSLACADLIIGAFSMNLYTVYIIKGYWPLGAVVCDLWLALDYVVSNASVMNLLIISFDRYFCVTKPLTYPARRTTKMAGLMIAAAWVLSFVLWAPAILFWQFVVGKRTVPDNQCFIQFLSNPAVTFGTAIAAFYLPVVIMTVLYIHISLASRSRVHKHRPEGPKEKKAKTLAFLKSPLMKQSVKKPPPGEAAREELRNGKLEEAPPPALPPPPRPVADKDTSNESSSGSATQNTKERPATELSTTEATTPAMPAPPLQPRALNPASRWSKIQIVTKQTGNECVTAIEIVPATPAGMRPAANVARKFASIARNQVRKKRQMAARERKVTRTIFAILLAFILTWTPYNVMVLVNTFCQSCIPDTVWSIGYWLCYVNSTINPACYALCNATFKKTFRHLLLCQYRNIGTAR
Method in brief: as §1

M2 muscarinic receptor = target: T4, M2 muscarinic receptor (Homo sapiens, UniProt P08172); experiment: Functional mobilization of intracellular calcium (FLIPR) in CHO cells expressing M2; conditions: for EC50: CHO cells expressing M2, FLIPR calcium; for Emax: CHO; for M2 Activity: CHO cells expressing M2, FLIPR calcium assay
T4 construct: expressed in transfected cells; host or cells: CHO (M2-CHO)
T4 sequence (P08172 1-466): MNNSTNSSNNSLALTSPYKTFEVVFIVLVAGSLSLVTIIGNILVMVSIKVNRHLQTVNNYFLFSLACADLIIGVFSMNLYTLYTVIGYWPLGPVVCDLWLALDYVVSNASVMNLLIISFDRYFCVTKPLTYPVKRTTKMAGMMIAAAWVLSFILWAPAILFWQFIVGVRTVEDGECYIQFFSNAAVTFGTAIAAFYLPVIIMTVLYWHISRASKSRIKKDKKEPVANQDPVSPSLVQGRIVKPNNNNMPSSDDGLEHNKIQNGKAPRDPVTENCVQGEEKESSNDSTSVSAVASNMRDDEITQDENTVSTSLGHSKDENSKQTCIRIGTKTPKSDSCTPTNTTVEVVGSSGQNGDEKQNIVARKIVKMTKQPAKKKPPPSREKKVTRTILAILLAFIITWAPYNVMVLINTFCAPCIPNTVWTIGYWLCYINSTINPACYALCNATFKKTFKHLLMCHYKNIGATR
Method in brief: as §1

[1] = 100% = maximum response obtained with the Carbachol control, read-out: M1 Efficacy
[2] = 100% = maximum response obtained with the Carbachol control, read-out: M3 Efficacy
[3] = 100% = maximum response obtained with the Carbachol control, read-out: M4 Efficacy
[4] = 100% = maximum response obtained with the Carbachol control, read-out: M2 Efficacy
[5] = 100% efficacy = maximum response obtained with the Carbachol control

SMILES | EC50 (M1 muscarinic receptor) | Emax (M1 muscarinic receptor; [1]) | EC50 (M3 muscarinic receptor) | Emax (M3 muscarinic receptor; [2]) | EC50 (M4 muscarinic receptor) | Emax (M4 muscarinic receptor; [3]) | EC50 (M2 muscarinic receptor) | Emax (M2 muscarinic receptor; [4]) | M1 Activity (M1 muscarinic receptor) | Emax (M1 muscarinic receptor; [5]) | M3 Activity (M3 muscarinic receptor) | Emax (M3 muscarinic receptor; [5]) | M4 Activity (M4 muscarinic receptor) | Emax (M4 muscarinic receptor; [5]) | M2 Activity (M2 muscarinic receptor) | Emax (M2 muscarinic receptor; [5])
CCN(C(=O)c1cccnc1)[C@@H]1CCC2(CCN(CCC(C)(C)C)CC2)c2ccccc21 [compound 111] | > 5 µM | < 25% | > 5 µM | < 25% | < 2 µM | 25 to 100% | > 5 µM | < 25% | – | – | – | – | – | – | – | –
CCN(C(=O)CC1CCCC1=O)[C@H]1CCC2(CCN(CCC(C)(C)C)CC2)c2ccccc21 (stereo partly shown) [compound 7] | 2 to 5 µM | 25 to 100% | > 5 µM | < 25% | < 2 µM | 25 to 100% | > 5 µM | < 25% | – | – | – | – | – | – | – | –
CN(C(=O)C1CC1)[C@H]1CCC2(CCN(CCC(C)(C)C)CC2)c2ccccc21 [compound 176] | 2 to 5 µM | < 25% | > 5 µM | < 25% | < 2 µM | 25 to 100% | > 5 µM | < 25% | – | – | – | – | – | – | – | –
CC(C)(C)CCN1CCC2(CC[C@H](N3C(=O)CCC3=O)c3ccccc32)CC1 [compound 102] | 2 to 5 µM | 25 to 100% | > 5 µM | < 25% | < 2 µM | 25 to 100% | > 5 µM | < 25% | – | – | – | – | – | – | – | –
CC(C)(C)CCN1CCC2(CC[C@@H](NC(=O)[C@H]3CCC(=O)N3)c3ccc(F)cc32)CC1 [compound 192] | – | – | – | – | – | – | – | – | + (activity was measured to be greater than 5.0 μM) | < 25% | + (activity was measured to be greater than 5.0 μM) | < 25% | +++ (activity was measured to be less than 2.0 μM) | 25 to 100% | + (activity was measured to be greater than 5.0 μM) | < 25%
CN([C@H]1CCC2(CCN(CCC(C)(C)C)CC2)c2ccccc21)S(C)(=O)=O [compound 161] | < 2 µM | 25 to 100% | > 5 µM | < 25% | < 2 µM | 25 to 100% | > 5 µM | < 25% | – | – | – | – | – | – | – | –
C=CCCCN1CCC2(CC1)C[C@H](NC(=O)N1CCCC1)c1ccccc12 [compound 301] | – | – | – | – | – | – | – | – | + (activity was measured to be greater than 5.0 μM) | < 25% | + (activity was measured to be greater than 5.0 μM) | < 25% | + (activity was measured to be greater than 5.0 μM) | < 25% | + (activity was measured to be greater than 5.0 μM) | < 25%
CC(C)(C)CCN1CCC2(CC[C@@H](NC(=O)CN3CCCCCC3=O)c3ccccc32)CC1 [compound 169] | < 2 µM | 25 to 100% | > 5 µM | < 25% | < 2 µM | 25 to 100% | < 2 µM | < 25% | – | – | – | – | – | – | – | –
CCN(CC)C(=O)CN1CCC2(CC1)C[C@H](NC(C)=O)c1ccccc12 [compound 226] | – | – | – | – | – | – | – | – | + (activity was measured to be greater than 5.0 μM) | < 25% | + (activity was measured to be greater than 5.0 μM) | < 25% | + (activity was measured to be greater than 5.0 μM) | < 25% | + (activity was measured to be greater than 5.0 μM) | < 25%
CCC(=O)N[C@H]1CC2(CCN(CCC(C)C)CC2)c2ccccc21 [compound 231] | – | – | – | – | – | – | – | – | + (activity was measured to be greater than 5.0 μM) | < 25% | + (activity was measured to be greater than 5.0 μM) | < 25% | +++ (activity was measured to be less than 2.0 μM) | < 25% | + (activity was measured to be greater than 5.0 μM) | < 25%
CCOCCC(=O)N[C@@H]1CCC2(CCN(CCC(C)(C)C)CC2)c2ccccc21 [compound 21] | < 2 µM | 25 to 100% | > 5 µM | < 25% | < 2 µM | 25 to 100% | < 2 µM | 25 to 100% | – | – | – | – | – | – | – | –
CC(=O)N[C@H]1CCC2(CCN(CCCC(F)(F)F)CC2)c2ccccc21 [compound 185] | – | – | – | – | – | – | – | – | ++ (activity was measured to be from 2.0 μM to 5.0 μM) | 25 to 100% | + (activity was measured to be greater than 5.0 μM) | 25 to 100% | ++ (activity was measured to be from 2.0 μM to 5.0 μM) | 25 to 100% | + (activity was measured to be greater than 5.0 μM) | < 25%
Cc1cc(C(=O)N[C@@H]2CCC3(CCN(CCC(C)(C)C)CC3)c3ccccc32)nn1C [compound 216] | – | – | – | – | – | – | – | – | ++ (activity was measured to be from 2.0 μM to 5.0 μM) | 25 to 100% | + (activity was measured to be greater than 5.0 μM) | < 25% | +++ (activity was measured to be less than 2.0 μM) | 25 to 100% | ++ (activity was measured to be from 2.0 μM to 5.0 μM) | 25 to 100%
CCN(C(=O)CC(C)(C)O)[C@H]1CCC2(CCN(CCC(C)(C)C)CC2)c2ccccc21 [compound 42] | 2 to 5 µM | 25 to 100% | > 5 µM | < 25% | < 2 µM | 25 to 100% | > 5 µM | < 25% | – | – | – | – | – | – | – | –
CC(=O)CCC(=O)N[C@H]1CCC2(CCN(CCC(C)(C)C)CC2)c2cc(F)ccc21 [compound 92] | < 2 µM | 25 to 100% | > 5 µM | < 25% | < 2 µM | 25 to 100% | < 2 µM | 25 to 100% | – | – | – | – | – | – | – | –
CC(=O)N1CCCCC1C(=O)N[C@@H]1CCC2(CCN(CCC(C)(C)C)CC2)c2ccccc21 (stereo partly shown) [compound 186] | – | – | – | – | – | – | – | – | ++ (activity was measured to be from 2.0 μM to 5.0 μM) | 25 to 100% | + (activity was measured to be greater than 5.0 μM) | < 25% | +++ (activity was measured to be less than 2.0 μM) | 25 to 100% | + (activity was measured to be greater than 5.0 μM) | < 25%
CC(C)CCN1CCC2(CC1)C[C@H](NC(=O)c1ccoc1)c1ccccc12 [compound 267] | – | – | – | – | – | – | – | – | + (activity was measured to be greater than 5.0 μM) | < 25% | + (activity was measured to be greater than 5.0 μM) | < 25% | + (activity was measured to be greater than 5.0 μM) | < 25% | + (activity was measured to be greater than 5.0 μM) | < 25%
